This note sets out measurements from patent publication US10766869B2, “Triazoles for the treatment of demyelinating dieases” (Vertex Pharmaceuticals Incorporated, priority 2015, dated 2020).

Where two headings read alike, the source gives them in different places. A value given as a limit tells only on which side of the number the result lay.

This experiment deals with primary rat mixed cortical cells. The experiment can be described thus: In vitro myelination assay (MBP positive myelin strands, fold myelin pixels above background). In kind it is cell-based. The settings on record: for fold induction at 1 µM / fold induction at 10 µM: Rattus norvegicus. The procedure, abridged: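 Fourteen-day treatment of primary P1 rat mixed cortical cultures, re-dosed at days 6 and 10, at 1.0 μM and 10.0 μM. MBP immunofluorescence was imaged at 10× and myelin strands quantified by software, normalised to untreated wells as fold above background.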

Setting [1] is: 1.0 μM compound, relative to baseline of no added compound, read-out: Fold myelin pixels above background, 1.0 μM.
Where [2] appears, read: 10.0 μM compound, relative to baseline of no added compound, read-out: Fold myelin pixels above background, 10.0 μM.
Setting [3] is: 1.0 μM compound, read-out: Fold myelin pixels above background relative to baseline of no added compound.
The mark [4] stands for this setting: 10.0 μM compound, read-out: Fold myelin pixels above background relative to baseline of no added compound.
[5] abbreviates: 1.0 μM compound, relative to baseline of no added compound, read-out: Fold myelin pixels above background.
Setting [6] is: 10.0 μM compound, relative to baseline of no added compound, read-out: Fold myelin pixels above background.

On to `Fc1cc(F)cc(-n2cnc(Nc3cc(C(F)F)cc(N4CCN(C5COC5)CC4)c3)n2)c1` [Compound 82, N-[3-(difluoromethyl)-5-[4-(oxetan-3-yl)piperazin-1-yl]phenyl]-1-(3,5-difluorophenyl)-1,2,4-triazol-3-amine], for which, under setting [1], the fold induction at 1 µM lay in the range of 1000 to 10000. Under setting [2], the fold induction at 10 µM is 100 to 1000.
With `Cc1cc(Nc2ncn(-c3cc(F)cc(F)c3)n2)cc(N2CC(N3CCOCC3)CC2C)c1` (stereo not drawn) [Compound 920, 1-(3,5-difluorophenyl)-N-[3-methyl-5-(2-methyl-4-morpholino-pyrrolidin-1-yl)phenyl]-1,2,4-triazol-3-amine], the fold induction at 1 µM under setting [3] lay within 10 to 100. Moreover, the fold induction at 10 µM under setting [4] is at most 1.
The like results for `[2H]C1(N2CCN(c3cc(C)cc(Nc4ncn(-c5ccccc5)n4)c3)CC2)CCOC1` (stereo not drawn) [Compound 1039, N-[3-[4-(3-deuteriotetrahydrofuran-3-yl)piperazin-1-yl]-5-methyl-phenyl]-1-phenyl-1,2,4-triazol-3-amine] were, in that order, 10 to 100 and at most 1.
For `N#Cc1cc(Nc2ncn(-c3ccc(F)c(F)c3)n2)nc(N2CCN(C3COC3)CC2)c1` [Compound 607, 2-[[1-(3,4-difluorophenyl)-1,2,4-triazol-3-yl]amino]-6-[4-(oxetan-3-yl)piperazin-1-yl]pyridine-4-carbonitrile], the fold induction at 1 µM under setting [5] is 10 to 100. Besides, the fold induction at 10 µM under setting [6] is 10 to 100.
As to `Cc1cc(Nc2ncn(-c3ccc(F)c(F)c3)n2)cc(NC2CCN(C3COC3)CC2)c1` [Compound 278, N3-[1-(3,4-difluorophenyl)-1,2,4-triazol-3-yl]-5-methyl-N1-[1-(oxetan-3-yl)-4-piperidyl]benzene-1,3-diamine], under setting [1], the fold induction at 1 µM fell in the range of 100 to 1000. Further, the fold induction at 10 µM under setting [2] is 1 to 10.
In the case of `FC(F)c1cc(Nc2ncn(-c3cccc(C(F)(F)F)c3)n2)nc(N2CCN(C3COC3)CC2)c1` [Compound 680, 4-(difluoromethyl)-6-[4-(oxetan-3-yl)piperazin-1-yl]-N-[1-[3-(trifluoromethyl)phenyl]-1,2,4-triazol-3-yl]pyridin-2-amine], the fold induction at 1 µM under setting [5] was 10 to 100. Further, the fold induction at 10 µM under setting [6] lay in the range of 10 to 100.
With `Cc1cc(Nc2ncn(-c3ccccc3)n2)cc(N2CCN(C3CCCC3)CC2)c1` [Compound 87, N-[3-(4-cyclopentylpiperazin-1-yl)-5-methyl-phenyl]-1-phenyl-1,2,4-triazol-3-amine], under setting [1], the fold induction at 1 µM lay in the range of 100 to 1000. Also, the fold induction at 10 µM under setting [2] was 100 to 1000.
Consider `Cc1cc(Nc2ncn(-c3cc(F)cc(F)c3)n2)cc(N2CCN(C)CC2)n1` [Compound 365, N-[1-(3,5-difluorophenyl)-1,2,4-triazol-3-yl]-2-methyl-6-(4-methylpiperazin-1-yl)pyridin-4-amine], for which, under setting [1], the fold induction at 1 µM fell in the range of 10 to 100. For the same compound, the fold induction at 10 µM under setting [2] is at most 1.
The like results for `Cc1cc(Nc2ncn(-c3cc(F)cc(Cl)c3)n2)cc(N2CCN(C)CC2)c1` [Compound 220, 1-(3-chloro-5-fluoro-phenyl)-N-[3-methyl-5-(4-methylpiperazin-1-yl)phenyl]-1,2,4-triazol-3-amine] were, in that order, 10 to 100 and at most 1.
For `Cc1cc(Nc2ncn(-c3cc(C)cc(F)c3)n2)cc(N2CCN(C)CC2)c1` [Compound 424, 1-(3-fluoro-5-methyl-phenyl)-N-[3-methyl-5-(4-methylpiperazin-1-yl)phenyl]-1,2,4-triazol-3-amine], the fold induction at 1 µM under setting [5] was 100 to 1000. In addition, the fold induction at 10 µM under setting [6] is at most 1.
Consider `COC[C@H](C)NC(=O)C1CN(c2cc(C)cc(Nc3ncn(-c4cc(F)cc(F)c4)n3)c2)C1` [Compound 584, 1-[3-[[1-(3,5-difluorophenyl)-1,2,4-triazol-3-yl]amino]-5-methyl-phenyl]-N-[(1S)-2-methoxy-1-methyl-ethyl]azetidine-3-carboxamide], for which the fold induction at 1 µM under setting [5] lay in the range of 10 to 100. The fold induction at 10 µM under setting [6] lay within 1 to 10.
Turning to `FC(F)c1cccc(-n2cnc(Nc3cc(C(F)(F)F)cc(N4CC(N5CCOCC5)C4)n3)n2)c1` [Compound 636, N-[1-[3-(difluoromethyl)phenyl]-1,2,4-triazol-3-yl]-6-(3-morpholinoazetidin-1-yl)-4-(trifluoromethyl)pyridin-2-amine], the fold induction at 1 µM under setting [5] lay within 1 to 10. Further, under setting [6], the fold induction at 10 µM was in the range of 1 to 10.
Turning to `Cc1cc(Nc2ncn(-c3cccc(C#N)c3)n2)cc(N2CCN(C)CC2)c1` [Compound 499, 3-[3-[3-methyl-5-(4-methylpiperazin-1-yl)anilino]-1,2,4-triazol-1-yl]benzonitrile], the fold induction at 1 µM under setting [5] is 100 to 1000. Further, the fold induction at 10 µM under setting [6] lay within 10 to 100.
`Fc1cccc(-n2cnc(Nc3cc(Cl)cc(N4CC(N5CCOCC5)C4)c3)n2)c1` [Compound 827, N-[3-chloro-5-(3-morpholinoazetidin-1-yl)phenyl]-1-(3-fluorophenyl)-1,2,4-triazol-3-amine]: the fold induction at 1 µM under setting [3] lay in the range of 10 to 100. Also, under setting [4], the fold induction at 10 µM is 1 to 10.
Take `CC(=O)OCC(C)(COC(C)=O)N1CCN(c2cc(C)cc(Nc3ncn(-c4cc(F)cc(F)c4)n3)c2)CC1` [Compound 505, [3-acetoxy-2-[4-[3-[[1-(3,5-difluorophenyl)-1,2,4-triazol-3-yl]amino]-5-methyl-phenyl]piperazin-1-yl]-2-methyl-propyl] acetate]: under setting [5], the fold induction at 1 µM was 10 to 100. The fold induction at 10 µM under setting [6] is at most 1.
In the case of `[2H]C1([2H])OC([2H])([2H])C([2H])([2H])N(c2cc(C)cc(Nc3ncn(-c4cc(F)cc(F)c4)n3)c2)C1([2H])[2H]` [Compound 982, 1-(3,5-difluorophenyl)-N-[3-methyl-5-(2,2,3,3,5,5,6,6-octadeuteriomorpholin-4-yl)phenyl]-1,2,4-triazol-3-amine], under setting [3], the fold induction at 1 µM was 10 to 100. Moreover, under setting [4], the fold induction at 10 µM was at most 1.
As to `Cc1cc(Nc2ncn(-c3cccc(F)c3)n2)c(F)c(OC2CCOC2)c1` (single isomer, unassigned) [Compound 886, N-(2-fluoro-5-methyl-3-tetrahydrofuran-3-yloxy-phenyl)-1-(3-fluorophenyl)-1,2,4-triazol-3-amine], the “Fold myelin pixels above background relative to baseline of no added compound” value (1.0 μM compound) was “++ (>10 to 100x)” and the “Fold myelin pixels above background relative to baseline of no added compound” value (10.0 μM compound) is reported as “+ (>1 to 10x)”.
As for `Cc1cc(Nc2ncn(-c3cc(F)cc(F)c3)n2)cc(N2CC3(C2)CN(C(C)C)C3)c1` [Compound 1081, 1-(3,5-difluorophenyl)-N-[3-(2-isopropyl-2,6-diazaspiro[3.3]heptan-6-yl)-5-methyl-phenyl]-1,2,4-triazol-3-amine], the fold induction at 1 µM under setting [3] is 1 to 10. Besides, the fold induction at 10 µM under setting [4] was in the range of 1 to 10.
On to `Cc1cc(NCC2CCN(C3CCOCC3)CC2)cc(Nc2ncn(-c3cc(F)cc(F)c3)n2)c1` [Compound 1046, N1-[1-(3,5-difluorophenyl)-1,2,4-triazol-3-yl]-5-methyl-N3-[(1-tetrahydropyran-4-yl-4-piperidyl)methyl]benzene-1,3-diamine], for which, under setting [3], the fold induction at 1 µM is 1 to 10. Also, the fold induction at 10 µM under setting [4] is at most 1.
Turning to `Cc1cc(Nc2ncn(-c3cc(F)cc(F)c3)n2)cc(N2CC(CO)C2)c1` [Compound 493, [1-[3-[[1-(3,5-difluorophenyl)-1,2,4-triazol-3-yl]amino]-5-methyl-phenyl]azetidin-3-yl]methanol], the fold induction at 10 µM under setting [6] is at most 1.
With `Cc1cc(Nc2ncn(-c3ccccc3)n2)cc(C2CCCN(C3CC3)C2)c1` (stereo not drawn) [Compound 340, N-[3-(1-cyclopropyl-3-piperidyl)-5-methyl-phenyl]-1-phenyl-1,2,4-triazol-3-amine], the fold induction at 1 µM under setting [1] fell in the range of 100 to 1000. Also, the fold induction at 10 µM under setting [2] is at most 1.
For the compound `Cc1cc(Nc2ncn(-c3ccc(C#N)c(F)c3)n2)cc(N2CCN(C3COC3)CC2)c1` [Compound 140, 2-fluoro-4-[3-[3-methyl-5-[4-(oxetan-3-yl)piperazin-1-yl]anilino]-1,2,4-triazol-1-yl]benzonitrile], the fold induction at 1 µM under setting [1] was in the range of 1 to 10. Further, under setting [2], the fold induction at 10 µM was 1 to 10.
With `Cc1cc(Nc2ncn(-c3cc(F)cc(F)c3)n2)cc(N2CC(N3CCOC(C)(C)C3)C2)c1` [Compound 602, 1-(3,5-difluorophenyl)-N-[3-[3-(2,2-dimethylmorpholin-4-yl)azetidin-1-yl]-5-methyl-phenyl]-1,2,4-triazol-3-amine], under setting [5], the fold induction at 1 µM lay in the range of 1 to 10. The fold induction at 10 µM under setting [6] was 1 to 10.
Regarding `CCc1cc(Nc2ncn(-c3cc(C)ncn3)n2)cc(N2CCN(C3COC3)CC2)c1` [Compound 58, N-[3-ethyl-5-[4-(oxetan-3-yl)piperazin-1-yl]phenyl]-1-(6-methylpyrimidin-4-yl)-1,2,4-triazol-3-amine], the fold induction at 1 µM under setting [1] lay within 100 to 1000. The fold induction at 10 µM under setting [2] is 100 to 1000.
For `Cc1cc(Nc2ncn(-c3ccccc3)n2)cc(N2CC3(C2)CN(C(C)C)C3)c1` [Compound 1034, N-[3-(2-isopropyl-2,6-diazaspiro[3.3]heptan-6-yl)-5-methyl-phenyl]-1-phenyl-1,2,4-triazol-3-amine], under setting [3], the fold induction at 1 µM was 10 to 100. Under setting [4], the fold induction at 10 µM is at most 1.
Take `Fc1cc(Nc2ncn(-c3ccc(F)c(F)c3)n2)cc(N2CCCC2)c1` [Compound 99, 1-(3,4-difluorophenyl)-N-(3-fluoro-5-pyrrolidin-1-yl-phenyl)-1,2,4-triazol-3-amine]: the fold induction at 1 µM under setting [1] is at most 1. Also, the fold induction at 10 µM under setting [2] is at most 1.
